Data on 32 compounds can be found in US8815909B2, “Diaminocyclohexane compounds and uses thereof” (Bristol-Myers Squibb Company, priority 2011, dated 2014).

Where two headings read alike, the source gives them in different places.

The test deals with T1, human Y4 receptor (Homo sapiens, UniProt P50391).
T1 construct: expressed in transfected cells
Kind of test: NPY4 cAMP HTRF Agonist Assay (inhibitory cAMP assay, Gi activation by Y4 agonism). The class given is cell-based. In a few lines: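 Y4 agonism read as lowered forskolin-stimulated cAMP (HTRF, 1 h detection at room temperature). Stable human Y4 CHO clone, 5000 cells/well, incubated 30 min at room temperature with compounds plus forskolin and IBMX in PBS.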
In general terms: Time-resolved FRET reads energy transfer from a long-lived donor to a nearby acceptor.

Where [1] appears, read: human Y4 stable CHO clonal cells, forskolin + IBMX, read-out: NPY4 cAMP HTRF Agonist Assay EC50.
The mark [2] stands for this setting: TABLE 2, R2 is Phenyl-CN, read-out: hY4 CAMP EC50.
Where [3] appears, read: human Y4 receptor, cAMP, read-out: hY4 CAMP EC50.
[4] abbreviates: second TABLE 1, R2 is Phenyl-CF3, read-out: hY4 CAMP EC50.

T1 sequence (P50391 whole entry): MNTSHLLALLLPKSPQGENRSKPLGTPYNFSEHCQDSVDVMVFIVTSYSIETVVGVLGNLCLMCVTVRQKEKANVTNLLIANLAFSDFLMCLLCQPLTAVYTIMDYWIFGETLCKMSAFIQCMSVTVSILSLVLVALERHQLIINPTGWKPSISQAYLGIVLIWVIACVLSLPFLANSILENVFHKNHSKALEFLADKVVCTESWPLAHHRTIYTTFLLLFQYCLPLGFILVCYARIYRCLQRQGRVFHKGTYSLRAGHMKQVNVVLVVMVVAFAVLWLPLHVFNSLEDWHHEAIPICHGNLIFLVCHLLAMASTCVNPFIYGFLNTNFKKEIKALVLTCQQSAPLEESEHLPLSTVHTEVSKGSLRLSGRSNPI

With `N#Cc1cnc(N2CCC[C@H](N[C@@H]3CCCC[C@H]3Nc3ncc(-c4ccccc4)o3)C2)nc1` [Example 82, 2-((S)-3-((1R,2R)-2-(5-Phenyloxazol-2-ylamino)cyclohexylamino)piperidin-1-yl)pyrimidine-5-carbonitrile], the EC50 (as a rule, the concentration at which the effect is half-maximal) under setting [1] turned out to be 107 nM.

`N#Cc1ccc(N2CCC[C@H](N[C@@H]3CCCC[C@H]3Nc3cc(-c4ccc5nccnc5c4)ccn3)C2)cc1` [Example 221]: under setting [2], the EC50 was determined as 77 nM.

On to `Cc1nc(-c2ccc(N3CCC[C@H](N[C@@H]4CCCC[C@H]4Nc4cc(-c5cccc(C(N)=O)c5)ccn4)C3)cn2)no1` [Example 378], for which the 50% effective concentration (EC50) under setting [3] is 4 nM.

Consider `N#Cc1ccc(N2CCC[C@H](N[C@@H]3CCCC[C@H]3Nc3cc(-c4cnc5ccccc5c4)ccn3)C2)cc1` [Example 217], for which the EC50 under setting [2] was determined as 478 nM.

In the case of `FC(F)(F)c1ccn(-c2ccc(N3CCC[C@H](N[C@@H]4CCCC[C@H]4Nc4nccc(-c5ccccc5)n4)C3)cc2)n1` [Example 69, (1R,2R)—N1-(4-Phenylpyrimidin-2-yl)-N2-((S)-1-(4-(3-(trifluoromethyl)-1H-pyrazol-1-yl)phenyl)piperidin-3-yl)cyclohexane-1,2-diamine bis-trifluoroacetate], the EC50 under setting [1] was found to be 384 nM.

Regarding `OCCc1ccc(-c2ccnc(N[C@@H]3CCCC[C@H]3N[C@H]3CCCN(c4ccc(C(F)(F)F)cc4)C3)c2)cc1` [Example 152], under setting [4], the EC50 amounted to 508 nM.

On to `NC(=O)c1cccc(-c2ccnc(N[C@@H]3CCCC[C@H]3N[C@H]3CCCN(c4ncc(C(F)(F)F)cn4)C3)c2)c1` [Example 399], for which the EC50 under setting [3] came to 22 nM.

For `FC(F)(F)Oc1ccc(-c2cnc(N[C@@H]3CCCC[C@H]3N[C@H]3CCCN(c4ccc(-n5cncn5)cc4)C3)o2)cc1` [Example 89, (1R,2R)—N1-((S)-1-(4-(1H-1,2,4-Triazol-1-yl)phenyl)piperidin-3-yl)-N2-(5-(4-(trifluoromethoxy)phenyl)oxazol-2-yl)cyclohexane-1,2-diamine bis-trifluoroacetate], the EC50 under setting [1] stood at 58 nM.

Consider `OCc1cc(-c2ccnc(N[C@@H]3CCCC[C@H]3N[C@H]3CCCN(c4ccc(C(F)(F)F)cc4)C3)c2)ccc1F` [Example 165], for which the EC50 under setting [4] stood at 38 nM.

As to `Cn1nnc(-c2ccc(N3CCC[C@H](N[C@@H]4CCCC[C@H]4Nc4cc(Br)ccn4)C3)cc2)n1` [Example 501], under setting [3], the EC50 came to 84 nM.

As to `c1ccc(-c2ccnc(N[C@@H]3CCCC[C@H]3N[C@H]3CCCN(c4ccc(-n5cncn5)cc4)C3)n2)cc1` [Example 91, (1R,2R)—N1-((S)-1-(4-(1H-1,2,4-Triazol-1-yl)phenyl)piperidin-3-yl)-N2-(4-phenylpyrimidin-2-yl)cyclohexane-1,2-diamine bis-trifluoroacetate], the 50% effective concentration (EC50) under setting [1] came to 288 nM.

Consider `O=[N+]([O-])c1ccc(N2CC3CCC2[C@@H](N[C@@H]2CCCC[C@H]2Nc2ncc(-c4ccc(OC(F)(F)F)cc4)o2)C3)cc1` (stereo partly drawn) [Example 17, (1R,2R)—N1-((6S)-2-(4-Nitrophenyl)-2-azabicyclo[2.2.2]octan-6-yl)-N2-(5-(4-(trifluoromethoxy)phenyl)oxazol-2-yl)cyclohexane-1,2-diamine], for which the 50% effective concentration (EC50) under setting [1] was 911 nM.

On to `CC(=O)c1ccccc1-c1ccnc(N[C@@H]2CCCC[C@H]2N[C@H]2CCCN(c3ccc(C#N)cc3)C2)c1` [Example 253], for which, under setting [2], the EC50 was 70 nM.

As to `N#Cc1ccc(N2C[C@@H]3C[C@H](N[C@@H]4CCCC[C@H]4Nc4cc(-c5ccc(OC(F)F)cc5)ccn4)[C@H]2C3)cc1` [Example 227], the EC50 under setting [2] was 16 nM.

For `COC(=O)c1cccc(-c2cnc(N[C@@H]3CCCC[C@H]3N[C@H]3CCCN(c4ccc(C(F)(F)F)cc4)C3)o2)c1` [Example 115], the EC50 under setting [4] was determined as 67 nM.

As for `C[C@]1(N[C@@H]2CCCC[C@H]2Nc2cc(-c3cccc(C(N)=O)c3)ccn2)CCCN(c2ccc(C(F)(F)F)cn2)C1` [Example 332], the concentration giving a half-maximal response (EC50) (TABLE 5, R2 is Pyridinyl-CF3, read-out: hY4 CAMP EC50) worked out at 24 nM.

Regarding `N#Cc1ccc(N2CCC[C@H](N[C@@H]3CCCC[C@H]3Nc3nccc(-c4ccccc4)n3)C2)cc1F` [Example 47, 2-Fluoro-4-((S)-3-((1R,2R)-2-(4-phenylpyrimidin-2-ylamino)cyclohexylamino)piperidin-1-yl)benzonitrile bis-trifluoroacetate], the EC50 under setting [1] was found to be 34 nM.

Consider `O=[N+]([O-])c1ccc(N2CCC[C@H](N[C@@H]3CCCC[C@H]3Nc3ncc(-c4ccc(OC(F)(F)F)c(F)c4)o3)C2)cc1` [Example 8, (1R,2R)—N1-(5-(3-Fluoro-4-(trifluoromethoxy)phenyl)oxazol-2-yl)-N2-((S)-1-(4-nitrophenyl)piperidin-3-yl)cyclohexane-1,2-diamine], for which, under setting [1], the EC50 was 16 nM.

Take `CC(C)(O)Cc1cccc(-c2ccnc(N[C@@H]3CCCC[C@H]3N[C@H]3CCCN(c4ccc(C(F)(F)F)cc4)C3)c2)c1` [Example 189]: the EC50 under setting [4] stood at 27 nM.

For the compound `N#Cc1ccc(N2CCC[C@H](N[C@@H]3CCCC[C@H]3Nc3cc(-c4ccccc4N)ccn3)C2)cc1` [Example 275], the EC50 under setting [2] turned out to be 872 nM.

Turning to `NCc1cccc(-c2ccnc(N[C@@H]3CCCC[C@H]3N[C@H]3CCCN(c4ccc(C(F)(F)F)cc4)C3)c2)c1` [Example 127], under setting [4], the EC50 was 79 nM.

For the compound `FC(F)(F)Oc1ccc(-n2nnc(N[C@@H]3CCCC[C@H]3N[C@H]3CCCN(c4ccc(C(F)(F)F)cc4)C3)n2)cc1` [Example 121], the EC50 under setting [4] worked out at 922 nM.

Take `N#Cc1ccc(N2CCC[C@H](N[C@@H]3CCCC[C@H]3Nc3ncc(-c4ccccc4)o3)C2)c(F)c1` [Example 51, 3-Fluoro-4-((S)-3-((1R,2R)-2-(5-phenyloxazol-2-ylamino)cyclohexylamino)piperidin-1-yl)benzonitrile]: the EC50 under setting [1] was found to be 548 nM.

With `N#Cc1ccc(N2CCC[C@H](N[C@@H]3CCCCC3Nc3ncc(-c4ccc(OC(F)(F)F)cc4)o3)C2)cn1` (some centres unmarked) [Example 309], for the setting “TABLE 4, R2 is Pyridinyl-CN, read-out: hY4 CAMP EC50”, the EC50 came to 10 nM.

On to `N#Cc1ccc(N2CCC[C@H](N[C@@H]3CCCC[C@H]3Nc3cc(-c4cccc(S(N)(=O)=O)c4)ccn3)C2)cc1` [Example 236], for which the EC50 under setting [2] is 40 nM.

For the compound `COC(=O)Nc1cccc(-c2ccnc(N[C@@H]3CCCC[C@H]3N[C@H]3CCCN(c4ccc(-c5ncn(C)n5)cc4)C3)c2)c1` [Example 455], the EC50 under setting [3] was determined as 2 nM.

In the case of `Cc1ccc(-c2ccnc(N[C@@H]3CCCC[C@H]3N[C@H]3CCCN(c4ccc(C#N)cc4)C3)c2)cc1` [Example 271], the half-maximal effective concentration (EC50) under setting [2] was 461 nM.

For `NC(=O)c1cccc(-c2cnc(N[C@@H]3CCCC[C@H]3N[C@H]3CCCN(c4ccc(C(F)(F)F)cc4)C3)o2)c1` [Example 104, (3-(2-((1R,2R)-2((S)-1-(4-trifluoromethyl)phenyl)piperidin-3-ylamino)cyclohexylamino)oxazol-5-yl)benzamide], the EC50 under setting [1] worked out at 0.2 nM.

As for `COC(=O)Nc1cccc(-c2ccnc(N[C@@H]3CCCC[C@H]3N[C@H]3CCCN(c4ccc(-c5noc(C)n5)cc4)C3)c2)c1` [Example 339], the EC50 under setting [3] was found to be 0.1 nM.

With `CC(=O)NCc1cccc(-c2ccnc(N[C@@H]3CCCC[C@H]3N[C@H]3CCCN(c4ccc(C(F)(F)F)cc4)C3)c2)c1` [Example 140], the EC50 under setting [4] came to 1 nM.

`Nc1cccc(-c2cnc(N[C@@H]3CCCC[C@H]3N[C@H]3CCCN(c4cnc(C(F)(F)F)nc4)C3)o2)c1` [Example 412]: under setting [3], the EC50 amounted to 69 nM.

Consider `CC(=O)c1cccc(-c2ccnc(N[C@@H]3CCCC[C@H]3N[C@H]3CCCN(c4ccc(C#N)cc4)C3)c2)c1` [Example 257], for which the EC50 under setting [2] stood at 100 nM.
